IC50 data for 24 molecules are collected here from US10421765B2, “Tetrahydropyrido[4,3-d]pyrimidine inhibitors of ATR kinase” (Board of Regents, The University of Texas System, priority 2017, dated 2019).

Structures are written as SMILES. Read-outs that look alike come from different tables or passages of the source.

Test [1] concerns ATR-driven phosphorylation of Chk1 kinase at Serine 345 in HT-29 colorectal adenocarcinoma cells. Description: pCHK1 cellular assay (CHK1 p-Ser345 AlphaScreen SureFire). The note with it: 4-nitroquinoline N-oxide 12 uM, read-out: Cell IC50 (pCHK1 IC50 values). Format: cell-based. The gist of the method:
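HT-29 cells seeded overnight, treated with 1:3 serially diluted compound for 90 minutes at 37° C., then 12 uM (final) 4-nitroquinoline N-oxide for 120 minutes. Lysates read for Chk1 p-Ser345 by AlphaScreen SureFire; IC50 from four-parameter logistic fit, normalized to DMSO (max) and 5 uM ATR inhibitor (min).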
(In general: In Alpha technology, singlet oxygen from a donor bead excites a nearby acceptor bead.)

Test [2] deals with ATR/ATRIP complex (Homo sapiens (Human), UniProt Q13535). Description: ATR/ATRIP enzymatic assay (Caliper-based). It is filed as biochemical. The conditions noted are these: FAM-labeled RAD17 peptide, ATP. The gist of the method:
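FLAG-TEV-ATR/His6-ATRIP co-expressed in HEK293 and anti-FLAG purified. Compound preincubated 30 min at 28 °C with enzyme (2x solution 4 nM), then FAM-RAD17 peptide (2x solution 10 uM, 2 μM ATP) added for 6 h at 28 °C; HEPES pH 8, 10 mM MnCl2. Caliper conversion read-out, IC50 from four-parameter fit.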

Setting [3] is: Homo sapiens, HT-29, HT-29 cells.
The mark [4] stands for this setting: read-out: ATR/ATRIP Enzyme IC50.
Where [5] appears, read: estimated range, read-out: ATR/ATRIP Enzyme IC50 (estimated class).

ATR/ATRIP complex, sequence (Q13535 whole entry): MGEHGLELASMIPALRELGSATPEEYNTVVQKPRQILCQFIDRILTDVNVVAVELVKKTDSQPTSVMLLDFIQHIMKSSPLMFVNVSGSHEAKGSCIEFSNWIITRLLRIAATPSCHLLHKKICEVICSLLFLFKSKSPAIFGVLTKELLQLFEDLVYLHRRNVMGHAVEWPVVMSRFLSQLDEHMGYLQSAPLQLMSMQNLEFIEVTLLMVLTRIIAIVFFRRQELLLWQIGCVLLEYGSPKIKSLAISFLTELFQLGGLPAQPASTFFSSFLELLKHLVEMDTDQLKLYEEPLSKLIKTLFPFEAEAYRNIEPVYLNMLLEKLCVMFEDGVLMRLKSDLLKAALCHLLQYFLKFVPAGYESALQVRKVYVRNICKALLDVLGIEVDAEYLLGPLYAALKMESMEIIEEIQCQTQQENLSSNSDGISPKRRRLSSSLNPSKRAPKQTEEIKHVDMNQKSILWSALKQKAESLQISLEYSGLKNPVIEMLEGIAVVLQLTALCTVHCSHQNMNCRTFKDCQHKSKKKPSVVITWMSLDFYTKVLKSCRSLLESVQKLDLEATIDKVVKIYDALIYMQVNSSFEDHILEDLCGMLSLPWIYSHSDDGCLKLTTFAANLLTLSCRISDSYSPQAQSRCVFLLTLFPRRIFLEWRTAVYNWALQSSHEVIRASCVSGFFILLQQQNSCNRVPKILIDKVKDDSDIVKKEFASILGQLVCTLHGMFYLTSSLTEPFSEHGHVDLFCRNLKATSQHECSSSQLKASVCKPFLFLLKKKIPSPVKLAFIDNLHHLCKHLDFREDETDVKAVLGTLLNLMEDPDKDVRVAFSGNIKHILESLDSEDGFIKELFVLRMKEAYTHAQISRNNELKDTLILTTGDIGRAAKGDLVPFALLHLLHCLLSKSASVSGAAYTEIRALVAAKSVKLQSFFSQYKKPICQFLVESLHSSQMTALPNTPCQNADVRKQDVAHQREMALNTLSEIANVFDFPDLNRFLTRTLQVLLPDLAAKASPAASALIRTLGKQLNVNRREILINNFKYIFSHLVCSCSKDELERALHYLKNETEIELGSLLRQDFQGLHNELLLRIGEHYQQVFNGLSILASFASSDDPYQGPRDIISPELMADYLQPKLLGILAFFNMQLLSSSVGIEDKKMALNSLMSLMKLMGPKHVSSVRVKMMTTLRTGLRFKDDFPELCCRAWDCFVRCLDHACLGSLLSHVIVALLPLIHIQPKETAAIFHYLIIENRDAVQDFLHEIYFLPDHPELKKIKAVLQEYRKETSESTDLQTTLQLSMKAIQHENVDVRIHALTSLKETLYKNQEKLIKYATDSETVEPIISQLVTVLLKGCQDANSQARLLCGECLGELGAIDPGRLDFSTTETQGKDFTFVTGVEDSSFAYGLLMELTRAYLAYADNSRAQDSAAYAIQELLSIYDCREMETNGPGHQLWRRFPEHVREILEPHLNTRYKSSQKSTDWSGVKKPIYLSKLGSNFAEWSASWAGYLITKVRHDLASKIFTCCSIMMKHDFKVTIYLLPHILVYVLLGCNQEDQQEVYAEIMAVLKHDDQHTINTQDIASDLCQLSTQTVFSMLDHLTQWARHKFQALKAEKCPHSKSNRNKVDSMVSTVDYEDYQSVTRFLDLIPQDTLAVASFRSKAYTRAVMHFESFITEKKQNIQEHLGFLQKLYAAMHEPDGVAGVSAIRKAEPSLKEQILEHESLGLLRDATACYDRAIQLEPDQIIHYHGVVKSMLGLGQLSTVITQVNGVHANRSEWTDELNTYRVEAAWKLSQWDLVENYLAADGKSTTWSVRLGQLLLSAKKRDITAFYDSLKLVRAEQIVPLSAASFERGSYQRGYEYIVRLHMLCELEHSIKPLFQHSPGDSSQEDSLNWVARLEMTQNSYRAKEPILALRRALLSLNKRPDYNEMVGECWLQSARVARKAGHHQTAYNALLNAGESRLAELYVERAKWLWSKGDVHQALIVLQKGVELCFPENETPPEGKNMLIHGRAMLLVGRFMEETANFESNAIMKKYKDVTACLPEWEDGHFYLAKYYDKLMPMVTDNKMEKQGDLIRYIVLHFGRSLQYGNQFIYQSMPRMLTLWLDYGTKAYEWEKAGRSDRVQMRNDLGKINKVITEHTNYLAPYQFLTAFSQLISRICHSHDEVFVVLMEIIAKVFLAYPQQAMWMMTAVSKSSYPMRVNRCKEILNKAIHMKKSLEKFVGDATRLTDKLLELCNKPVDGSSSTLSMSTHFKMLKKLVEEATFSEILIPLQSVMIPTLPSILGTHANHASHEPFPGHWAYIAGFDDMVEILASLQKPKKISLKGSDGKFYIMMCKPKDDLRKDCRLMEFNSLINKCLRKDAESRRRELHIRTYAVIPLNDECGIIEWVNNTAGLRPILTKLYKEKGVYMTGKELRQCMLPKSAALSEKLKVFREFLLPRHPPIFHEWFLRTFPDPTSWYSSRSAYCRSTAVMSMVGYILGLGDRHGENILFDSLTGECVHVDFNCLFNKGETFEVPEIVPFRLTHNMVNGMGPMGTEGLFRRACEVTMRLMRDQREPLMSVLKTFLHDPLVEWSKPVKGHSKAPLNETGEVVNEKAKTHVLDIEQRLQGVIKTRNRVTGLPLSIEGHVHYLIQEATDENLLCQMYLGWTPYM
ATR/ATRIP complex, sequence (Q8WXE1 whole entry partner): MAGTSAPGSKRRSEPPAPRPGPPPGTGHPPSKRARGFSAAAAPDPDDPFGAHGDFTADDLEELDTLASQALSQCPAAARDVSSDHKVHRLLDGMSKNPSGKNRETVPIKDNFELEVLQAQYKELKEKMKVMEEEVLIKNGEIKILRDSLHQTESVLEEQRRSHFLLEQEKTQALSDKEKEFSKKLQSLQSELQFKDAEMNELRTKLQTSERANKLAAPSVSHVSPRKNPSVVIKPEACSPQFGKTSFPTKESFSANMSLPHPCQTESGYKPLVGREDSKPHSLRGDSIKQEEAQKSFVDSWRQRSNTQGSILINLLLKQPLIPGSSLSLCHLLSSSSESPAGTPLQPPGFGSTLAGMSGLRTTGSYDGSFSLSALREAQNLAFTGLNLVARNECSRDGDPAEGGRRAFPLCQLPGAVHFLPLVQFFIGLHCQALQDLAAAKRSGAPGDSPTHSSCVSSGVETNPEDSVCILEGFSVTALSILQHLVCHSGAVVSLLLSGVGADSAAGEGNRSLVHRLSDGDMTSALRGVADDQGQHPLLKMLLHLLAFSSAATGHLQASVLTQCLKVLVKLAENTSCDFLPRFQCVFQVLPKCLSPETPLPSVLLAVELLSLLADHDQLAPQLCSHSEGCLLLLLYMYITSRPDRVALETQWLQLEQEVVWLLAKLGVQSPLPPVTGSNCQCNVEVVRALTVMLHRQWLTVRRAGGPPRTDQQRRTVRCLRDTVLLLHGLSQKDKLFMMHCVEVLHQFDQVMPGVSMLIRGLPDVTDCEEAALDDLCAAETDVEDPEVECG

In the case of `CC(C)Oc1cc(N2Cc3c(ncnc3C3CCN(S(C)(=O)=O)CC3)C[C@H]2C)c2cc[nH]c2n1` [Example 93, (R)-6-(6-isopropoxy-1H-pyrrolo[2,3-b]pyridin-4-yl)-7-methyl-4-(1-(methylsulfonyl)piperidin-4-yl)-5,6,7,8-tetrahydro-pyrido[4,3-d]pyrimidine], the IC50 was 15 nM in test [1] (setting [3]) and 87 nM in test [2] (setting [4]).

As for `C[C@@H]1Cc2ncnc(N3CCN(S(C)(=O)=O)C(C)(C)C3)c2CN1c1cc(Cl)nc2[nH]ccc12` [Example 21, 4-[(7R)-6-{6-chloro-1H-pyrrolo[2,3-b]pyridin-4-yl}-7-methyl-5H,6H,7H,8H-pyrido[4,3-d]pyrimidin-4-yl]-1-methanesulfonyl-2,2-dimethylpiperazine], the IC50 in test [1] (setting [3]) was 57 nM; in test [2] (setting [5]) it was 1000 to 10000 nM.

Regarding `C[C@@H]1Cc2ncnc(N3CCC(S(C)(=N)=O)CC3)c2CN1c1cc(Cl)nc2[nH]ccc12` (stereo partly drawn) [Example 58, (1-((R)-6-(6-chloro-1H-pyrrolo[2,3-b]pyridin-4-yl)-7-methyl-5,6,7,8-tetrahydropyrido[4,3-d]pyrimidin-4-yl)piperidin-4-yl)(imino)(methyl)-λ^6-sulfanone], the IC50 in test [1] (setting [3]) turned out to be 218 nM; in test [2] (setting [4]), 966 nM.

On to `C[C@@H]1Cc2ncnc(N3CCC[C@H](NS(C)(=O)=O)C3)c2CN1c1cc(Cl)nc2[nH]ccc12` [Example 71, N-((S)-1-((R)-6-(6-chloro-1H-pyrrolo[2,3-b]-pyridin-4-yl)-7-methyl-5,6,7,8-tetrahydropyrido-[4,3-d]pyrimidin-4-yl)-piperidin-3-yl)-methanesulfonamide], for which the IC50 in test [1] (setting [3]) is 7 nM; in test [2] (setting [4]) it was 73 nM.

For `C[C@@H]1Cc2ncnc([C@H]3CCN(S(C)(=O)=O)C(C)(C)C3)c2CN1c1ccnc2[nH]ccc12` (single isomer, unassigned) [Example 48b], the results for the IC50 in test [1] (HT-29 cells) and in test [2] (setting [4]) were 79 nM and 435 nM, respectively.

As for `C[C@@H]1Cc2ncnc(C3CCN(S(C)(=O)=O)CC3)c2CN1c1cc(OCC(F)(F)F)nc2[nH]ccc12` [Example 96, (R)-7-methyl-4-(1-(methylsulfonyl)piperidin-4-yl)-6-(6-(2,2,2-tri-fluoroethoxy)-1H-pyrrolo[2,3-b]pyridin-4-yl)-5,6,7,8-tetrahydro-pyrido[4,3-d]pyrimidine], the values for the IC50 in test [1] (setting [3]) and in test [2] (setting [4]) were 22 nM and 321 nM, respectively.

In the case of `CCS(=O)(=O)N1CCCC(c2ncnc3c2CN(c2cc(Cl)nc4[nH]ccc24)[C@H](C)C3)C1` (stereo partly drawn) [Example 24, 3-[(7R)-6-{6-chloro-1H-pyrrolo[2,3-b]pyridin-4-yl}-7-methyl-5H,6H,7H,8H-pyrido[4,3-d]pyrimidin-4-yl]-1-(ethanesulfonyl)-piperidine], the IC50 is 285 nM in test [1] (setting [3]) and 1000 to 10000 nM in test [2] (setting [5]).

For the molecule `COC(=O)[C@H]1CCCN(c2ncnc3c2CN(c2cc(Cl)nc4[nH]ccc24)[C@H](C)C3)C1` [Example 63, Methyl (S)-1-((R)-6-(6-chloro-1H-pyrrolo[2,3-b]pyridin-4-yl)-7-methyl-5,6,7,8-tetrahydropyrido-[4,3-d]pyrimidin-4-yl)-piperidine-3-carboxylate], the IC50 was 57 nM in test [1] (setting [3]) and 86 nM in test [2] (setting [4]).

For `C[C@@H]1Cc2ncnc(N3CCC[C@@H](C(C)(C)O)C3)c2CN1c1cc(Cl)nc2[nH]ccc12` [Example 70, 2-((R)-1-((R)-6-(6-chloro-1H-pyrrolo[2,3-b]-pyridin-4-yl)-7-methyl-5,6,7,8-tetrahydropyrido-[4,3-d]pyrimidin-4-yl)-piperidin-3-yl)propan-2-ol], the IC50 was 10 nM in test [1] (setting [3]) and 87 nM in test [2] (setting [4]).

Turning to `C[C@@H]1Cc2ncnc(N3CC(C#N)C3)c2CN1c1ccnc2[nH]ccc12` [Example 81, (R)-1-(7-methyl-6-(1H-pyrrolo[2,3-b]pyridin-4-yl)-5,6,7,8-tetrahydro-pyrido[4,3-d]pyrimidin-4-yl)azetidine-3-carbonitrile], the IC50 in test [1] (setting [3]) came to 38 nM; in test [2] (setting [4]), 246 nM.

`C[C@@H]1Cc2ncnc(C3CCCN(S(C)(=O)=O)C3)c2CN1c1ccnc2[nH]ccc12` (single isomer, unassigned) [Example 50a]: the IC50 in test [1] (setting [3]) was found to be 55 nM; in test [2] (setting [4]) it was 1200 nM.

Consider `C[C@@H]1Cc2ncnc(N3CCC4(CC3)NC(=O)NC4=O)c2CN1c1cc(Cl)nc2[nH]ccc12` [Example 61, (R)-8-(6-(6-chloro-1H-pyrrolo[2,3-b]pyridin-4-yl)-7-methyl-5,6,7,8-tetrahydropyrido[4,3-d]pyrimidin-4-yl)-1,3,8-triazaspiro[4.5]decane-2,4-dione], for which the IC50 in test [1] (setting [3]) is 570 nM; in test [2] (setting [4]), 514 nM.

With `CS(=O)(=O)N1CCC(c2ncnc3c2CN(c2ccnc4[nH]ccc24)[C@H](C(F)F)C3)CC1` [Example 53b], the IC50 in test [1] (HT-29 cells) was 485 nM; in test [2] (setting [4]), 2420 nM.

For the molecule `C[C@@H]1Cc2ncnc(N3CC(S(C)(=O)=O)C3)c2CN1c1cc(Cl)nc2[nH]ccc12` [Example 32, 1-[(7R)-6-{6-chloro-1H-pyrrolo[2,3-b]pyridin-4-yl}-7-methyl-5H,6H,7H,8H-pyrido[4,3-d]pyrimidin-4-yl]-3-methanesulfonylazetidine], the IC50 was 21 nM in test [1] (setting [3]) and 223 nM in test [2] (setting [4]).

Regarding `COC1CCN(c2ncnc3c2CN(c2cc(Cl)nc4[nH]ccc24)[C@H](C)C3)CC1` [Example 68, (R)-6-(6-chloro-1H-pyrrolo[2,3-b]pyridin-4-yl)-4-(4-methoxy-piperidin-1-yl)-7-methyl-5,6,7,8-tetrahydro-pyrido[4,3-d]pyrimidine], the IC50 in test [1] (setting [3]) is 48 nM; in test [2] (setting [4]), 475 nM.

Regarding `C[C@@H]1Cc2ncnc(N3C[C@H]4CC[C@@H](C3)[C@@H]4NS(C)(=O)=O)c2CN1c1cc(Cl)nc2[nH]ccc12` [Example 38, N-((1R,5S)-(8-anti)-3-((R)-6-(6-chloro-1H-pyrrolo[2,3-b]pyridin-4-yl)-7-methyl-5,6,7,8-tetrahydropyrido[4,3-d]pyrimidin-4-yl)-3-azabicyclo[3.2.1]octan-8-yl)methanesulfonamide], the results for the IC50 in test [1] (setting [3]) and in test [2] (setting [4]) were 83 nM and 929 nM, respectively.

Take `C[C@@H]1Cc2ncnc(N3CCC(NS(C)(=O)=O)CC3)c2CN1c1ccnc2[nH]ccc12` [Example 64, (R)-N-(1-(7-methyl-6-(1H-pyrrolo[2,3-b]-pyridin-4-yl)-5,6,7,8-tetrahydropyrido[4,3-d]-pyrimidin-4-yl)piperidin-4-yl)methanesulfonamide]: the IC50 came to 16 nM in test [1] (setting [3]) and 472 nM in test [2] (setting [4]).

For the molecule `C[C@@H]1Cc2ncnc(N3CCC[C@@H](NS(C)(=O)=O)C3)c2CN1c1cc(Cl)nc2[nH]ccc12` [Example 72, N-((R)-1-((R)-6-(6-chloro-1H-pyrrolo[2,3-b]-pyridin-4-yl)-7-methyl-5,6,7,8-tetrahydropyrido-[4,3-d]pyrimidin-4-yl)-piperidin-3-yl)-methanesulfonamide], the values for the IC50 in test [1] (setting [3]) and in test [2] (setting [4]) were 119 nM and 715 nM, respectively.

Regarding `C[C@@H]1Cc2ncnc(N3CCC(S(C)(=O)=O)CC3)c2CN1c1ccnc2[nH]ccc12` [Example 8, (R)-7-Methyl-4-(4-(methylsulfonyl)piperidin-1-yl)-6-(1H-pyrrolo[2,3-b]pyridin-4-yl)-5,6,7,8-tetrahydropyrido[4,3-d]pyrimidine bis(trifluoroacetate)], the IC50 was 127 nM in test [1] (setting [3]) and 979 nM in test [2] (setting [4]).

In the case of `C[C@@H]1Cc2ncnc(C3CCN(S(C)(=O)=O)CC3)c2CN1c1cc(Cl)nc2[nH]ccc12` [Example 7, (R)-6-(6-Chloro-1H-pyrrolo[2,3-b]pyridin-4-yl)-7-methyl-4-(1-(methylsulfonyl)-piperidin-4-yl)-5,6,7,8-tetrahydropyrido[4,3-d]pyrimidine bis(trifluoroacetate)], the IC50 stood at 32 nM in test [1] (setting [3]) and 163 nM in test [2] (setting [4]).

On to `C[C@@H]1Cc2ncnc(C3CCN(S(C)(=O)=O)CC3)c2CN1c1ncnc2[nH]ccc12` [Example 23, 1-methanesulfonyl-4-[(7R)-7-methyl-6-{7H-pyrrolo[2,3-d]pyrimidin-4-yl}-5H,6H,7H,8H-pyrido[4,3-d]pyrimidin-4-yl]piperidine], for which the IC50 was 611 nM in test [1] (setting [3]) and 1000 to 10000 nM in test [2] (setting [5]).

In the case of `CCOc1cc(N2Cc3c(ncnc3C3CCN(S(C)(=O)=O)CC3)C[C@H]2CF)c2cc[nH]c2n1` [Example 55b, (S)-6-(6-ethoxy-1H-pyrrolo[2,3-b]pyridin-4-yl)-7-(fluoromethyl)-4-(1-(methylsulfonyl)piperidin-4-yl)-5,6,7,8-tetrahydropyrido[4,3-d]pyrimidine], the results for the IC50 in test [1] (setting [3]) and in test [2] (setting [4]) were 30 nM and 311 nM, respectively.

With `C[C@@H]1Cc2ncnc(N3CCC(C(C)(C)O)CC3)c2CN1c1cc(Cl)nc2[nH]ccc12` [Example 30, 2-{1-[(7R)-6-{6-chloro-1H-pyrrolo[2,3-b]pyridin-4-yl}-7-methyl-5H,6H,7H,8H-pyrido[4,3-d]pyrimidin-4-yl]-piperidin-4-yl}propan-2-ol], the IC50 in test [1] (setting [3]) came out at 12 nM; in test [2] (setting [4]) it was 329 nM.

In the case of `CNC(=O)C1CCN(c2ncnc3c2CN(c2cc(Cl)nc4[nH]ccc24)[C@H](C)C3)CC1` [Example 76, (R)-1-(6-(6-chloro-1H-pyrrolo[2,3-b]pyridin-4-yl)-7-methyl-5,6,7,8-tetrahydropyrido[4,3-d]-pyrimidin-4-yl)-N-methylpiperidine-4-carboxamide], the IC50 in test [1] (setting [3]) was determined as 61 nM; in test [2] (setting [4]), 708 nM.
